Where “and” joins values, the source holds several entries; their conditions need not be identical. Equal entries are not always repeated.
What was measured:
HeLa cells = assay: Spindle integrity and reversibility in HeLa cells (confocal IF imaging); format: cell-based, human; settings: for Time after washout until all cells had arrested with a mitotic spindle (reversibility): compound B 5 µmol/l, washout and release into MG132 containing medium
Experimental: At compound B concentrations of 5 µmol/l and above, the cells arrested robustly in metaphase (∼15 h) and then underwent cell death, as diagnosed by cell shrinkage (Fig. 3B). […] This phenotype is indicative of chromatids being unable to bind to spindle MTs and/or of spindle defects, as observed with nocodazole (Fig. 3C). […] Because drugs that inhibit tubulin polymerization also destabilize MTs, we next probed whether compound B destabilized metaphase spindles. We arrested HeLa cells in metaphase using 10 µmol/l of proteosome inhibitor MG132. […] Thus, compound B prevents tubulin assembly and destabilizes spindle MTs in cells.
To probe whether the activity of compound B is reversible or not, we synchronously released G1/S arrested HeLa cells into fresh medium containing 5 µmol/l compound B (nocodazole was used as the positive control). The cells efficiently arrested in […] due to absence of a mitotic spindle (Fig. 3E, left column of images in each set). Compound B and nocodazole were then washed out and the cells were released in MG132 containing medium.
G1/S synchronization with 2.5 mmol/l thymidine was carried out for 16 h. IF imaging (Leica TCS SP2 confocal microscope) was performed on cells fixed with 4% paraformaldehyde, permeabilized with 0.1% Triton X-100 and treated with 4% BSA. The cells were incubated with appropriate antibodies diluted in 4% BSA in PBS. Primary antibodies used in IF imaging were mouse monoclonal antiNdc80 antibody (1∶1000, Genetex Clone 9G3.23), CREST serum (1∶50, Antibodies Incorporation) and mouse monoclonal anti-α-tubulin antibody (1∶2000, Sigma-Aldrich Clone B512). Secondary antibodies used were Alexa Fluor 488 (1∶150), Cy3 (1∶400) and Cy5 (1∶50) (Jackson Immunoresearch).

[1] = tested on: recombinant human Ndc80 kinetochore complex binding to taxol-stabilized microtubules; assay: Ndc80^488 complex-MT binding assay (fluorescence microscopy / TIRF); settings: for Effect on binding of the Ndc80^488 complex to taxol-stabilized MTs: compound 50 µmol/l, wide-field fluorescence microscopy; for IC50: total internal reflection fluorescence microscopy, Ndc80^488 complex 0.1 µmol/l, taxol-stabilized MTs
Source text: To screen compound libraries for molecules inhibiting binding of the outer kinetochore Ndc80 complex (Ndc80, Nuf2, Spc24, Spc25) to MTs, we used a fluorescence microscopy-based in vitro approach (Fig. 1). First, the recombinant human Ndc80 construct, used to crystallize the complex, was produced in Escherichia coli using a bicistronic plasmid from which the Nuf2-Spc24 and Ndc80-Spc25 peptides were generated (Fig. 1A). Following their intracellular assembly, the complex was purified from E. coli cell extract based on the GST tag at the N-terminus of Nuf2. The complex was released in solution with PreScission Protease (its recognition sequence was introduced between the GST tag and the NUF2 coding sequence) and was separated from contaminants by gel filtration chromatography (Fig. 1A). The high degree of purity of the preparation was confirmed by SDS-PAGE analysis and coomassie staining, which identified only both peptides (Fig. 1B). Next, the Ndc80 complex was fluorescently labeled with the Alexa Fluor 488 C5-maleimide (next named the Ndc80^488 complex) and was separated from unreacted fluorophore by gel filtration chromatography. The final preparation was highly pure as evidenced by gel filtration analysis and detection at 519 nm (emission maximum of the Alexa Fluor 488 dye) and at 280 nm (intrinsic protein fluorescence) (Fig. 1B). Next, the Ndc80^488 complex (0.1 µmol/l) was incubated with 10,200 compounds (comprising the Chembridge DIVERset and a compound collection from the Univ. Rome) at a starting concentration of 50 µmol/l. Binding (or lack thereof) of the complex to rhodamine-labeled taxol-stabilized MTs (0.1 µmol/l) was scored by wide-field fluorescence microscopy (Fig. 1C; images in Fig. 2A). […] Total internal reflection fluorescence microscopy was used to establish the IC50 value of the compound, which was measured to be ∼20 µmol/l (Fig. 2C).
Recombinant human Ndc80 complex (Ndc80^Bonsai complex) was produced in Escherichia coli using a bicistronic expression plasmid (Fig. 1A, [12]). Following transcription from the TAC promoter/operator by induction with 0.4 mmol/l IPTG (20°C, 15 h), GST-Nuf2-Spc24 and Ndc80-Spc25 polypeptides were generated, which dimerized intracellulary into the GST-Ndc80 complex. The complex was isolated from E. coli cell extract following incubation with glutathione beads. The complex was released from the beads with PreScission Protease (GE Healthcare Life Sciences) and contaminants were removed by gel filtration chromatography (Superdex 200, GE Healthcare Life Sciences). On average 4 mg of Ndc80 complex were obtained from 1 liter of cell culture. Next, 1 mg Ndc80 complex was labeled with 0.1 mg Alexa Fluor 488 C5-maleimide fluorophore (Invitrogen) at a 1.5-2 stoichiometry. The fluorescent complex (Ndc80^488 complex) was separated from unreacted fluorophore by gel filtration chromatography (Fig. 1B) and was then used to screen for compounds inhibiting Ndc80^488 complex-MT binding (Fig. 1C). The Ndc80^488 complex is fully functional as it is recruited to and acts at kinetochores when injected into prometaphase HeLa cells.
MTs were polymerized (30 min, 37°C) from a 1∶10 mixture of rhodamine-labeled:unlabeled bovine brain αβ-tubulin (Cytoskeleton) in BRB-80 buffer (80 mmol/l PIPES pH 6.8, 1 mmol/l MgCl2, 1 mmol/l EGTA) and were then stabilized with 20 µmol/l taxol. The Ndc80^488 complex (0.1 µmol/l) was incubated with 100 µmol/l compound (30 min, 24°C) in 96-well polypropylene plates (Eppendorf). The 10,000 compound DIVERset library (Chembridge) and 200 compounds from the Department of Medicinal Chemistry and Technologies, University of Rome La Sapienza were used in the screen. Next, the MTs (100 nmol/l) were added to the compound-Ndc80^488 complex solution in a 1∶1 v/v ratio. After incubation (10 min, 24°C), the reaction mixtures were transferred to 96-well glass-bottom plates (Greiner Bio-one). […]

[2] = tested on: colchicine site in αβ-tubulin; assay: [3H]colchicine competition (DEAE-cellulose filter method); format: binding; settings: [3H]colchicine 5 µmol/l, tubulin 1 µmol/l
Source text: Agents that inhibit tubulin polymerization and destabilize MTs include the colchicinoids, combretastatins, benzimidazole carbamates, vinca alkaloids, and maytansinoids. These drugs act primarily at β-tubulin in the αβ-heterodimer, albeit at different sites. Colchicinoids, combretastatins and benzimidazole carbamates (e.g. nocodazole) localize to the colchicine site near the C-terminus of β-tubulin at the αβ-tubulin intradimer interface, [16], whereas vinca alkaloids and maytansinoids localize to the N-terminal GTPase domain of β-tubulin [17], [18]. […] Its binding affinity, however, was ∼3-fold lower than that of nocodazole (compare values at 5 µmol/l and 20 µmol/l, Fig. 5C).
Tubulin binding of [^3H]colchicine was measured by the DEAE-cellulose filter method. Reaction mixtures contained 1.0 µmol/l αβ-tubulin, 1.0 mol/l monosodium glutamate, 0.1 mol/l glucose-1-phosphate, 1.0 mmol/l MgCl2, 1.0 mmol/l GTP, 0.5 mg/ml BSA, 5% DMSO, 5 µmol/l [^3H]colchicine, and inhibitor at 1, 5, 20 or 50 µmol/l. These reaction conditions strongly stabilize the colchicine-binding activity of tubulin [21].

Row | Structure (SMILES) | Time after washout until all cells had arrested with a mitotic spindle (reversibility) (HeLa cells; HeLa) | Effect on binding of the Ndc80^488 complex to taxol-stabilized MTs [1] | IC50 [1] | Fold more active than compound B in the Ndc80^488 complex-MT binding assay ([1]; versus compound B) | Fold more active than compound B as inhibitors of [3H]colchicine-tubulin binding [2] | Effect on metaphase spindles of MG132-arrested cells (HeLa cells; HeLa arrested with 10 µmol/l MG132, 10 µmol/l compound) | Spindle formation in cells released from G1/S (HeLa cells; HeLa, 10 µmol/l compound, confocal IF) | Binding affinity for the colchicine site, fold lower than that of nocodazole ([2]; values at 5 and 20 µmol/l compared) | Inhibition of [3H]colchicine binding to tubulin ([2]; compound 1–50 µmol/l)
1 | COC(=O)Nc1nc2ccc(C(=O)c3cccs3)cc2[nH]1 [nocodazole, reference compound] | ≤ 3 h | did not prevent | – | – | – | – | – | – | –
2 | CCSCCOC(=O)c1[nH]c2c(c1C)C(=O)C[C@@H](c1ccco1)C2 [A8] | – | – | ~1 µM and 1 µM | ~20 fold | 3 fold | – | – | – | –
3 | Cc1c(C(=O)OCC2CCCO2)[nH]c2c1C(=O)CC(c1ccco1)C2 (stereo not drawn) [compound B, 6-furan-2-yl-3-methyl-4-oxo-4,5,6,7,-tetrahydro-1H-indole-2-carboxylic acid tetrahydro-furan-2-ylmethyl ester] | ≤ 3 h | active | ~20 µM and 20 µM | – | – | depolymerized the spindle | All cells lacked a mitotic spindle | ~3 fold | significantly inhibited

From paper PMC2904697, “A Screen for Kinetochore-Microtubule Interaction Inhibitors Identifies Novel Antitubulin Compounds” (PLoS ONE, 2010)
